Measured values: article PMC11090880 (Current Research in Microbial Sciences, 2024)

Target: OROV Endo-Nter (N-terminal endonuclease domain of the OROV RNA polymerase, L protein) (Oropouche virus, UniProt A0A0B5CUJ1)
Experiment: FRET cleavage assay of dual-labelled DNA
Type: biochemical

For `COc1cc(O)c2c(c1)oc(=O)c1c3cc(O)c(O)cc3oc21` [WDL, 7‑methoxy 5,11,12-trihydroxy-coumestan], the IC50 was 0.31 ± 0.008 µM.
